# Test results: US20230150951A1, “2,5- OR 2,6-DISUBSTITUTED HYDROQUINONE DERIVATIVES WITH AT LEAST ONE CARBOXY, SULFO OR AMIDO GROUP USEFUL AS MEDICAMENTS” (OM PHARMA SA, priority 2020, published 2023)
# Like-named read-outs stand apart in the source and are kept apart here.
# Legend:
# IL-17F = experiment: Cytokine release after LPS induction on human whole blood: IL-17F; assay type: cell-based
# Method: (§1) Aim of this in vitro method is to assess compounds effects on release of a panel of cytokines from whole blood following lipopolysaccharide (LPS) induced inflammatory reaction. Whole blood was incubated with compounds for 1 h prior to LPS induction. Cytokine levels in blood were measured using a multiplex FACS-based panel.
# (§2) IC50 values determined for the tested compounds expressed in microM [μM] and the values for the inhibition of cytokines were listed for each compound.
# (§3) Effect on cytokines release after LPS induction was performed on the compounds dissolved in DMSO or H2O to reach 10-fold concentrated stock solutions and dissolved in culture media.
# (§4) Test system: Whole blood was removed from a single donor (into lithium heparin coated tubes; BD Vacutainer; 367886) and diluted 1:5 with RPMI 1640 (Thermo Fisher, 61870036). Within 30 minutes of sampling, blood was incubated with compounds for 1 h prior to LPS stimulation (O111:B4—Sigma L4391; 10 ng/ml final concentration). Stimulation continued under standard cell culture conditions (37° C. with 5% CO2) overnight (18 h), after which plates were centrifuged and supernatant removed and frozen at −80° C. until used for analyses.
# (§5) Dilution of test compounds: 10×concentrated solutions (concerning to the final assay concentrations) of each test compound were prepared with the appropriate solvent (in DMSO or in water). These 10× compound solutions (10 μl) were then added to 90 μl pre-diluted whole blood (whole blood: RPMI1640, 1:5) resulting in the final assay concentration.
# (§6) Test method: Diluted whole blood (80 μl) was pre-incubated with compounds (10 μl) to give final assay concentrations of 100, 30, 10, 3, 1, 0.3 and 0.1×10^−6M. Blood was incubated at 37° C. with 5% CO2 for 1 h. LPS was diluted in cell culture media to a concentration of […]; 10 μl was added to the whole blood to give a final concentration of 10 ng/ml. Plates were incubated at 37° C. for 18 h. Plates were centrifuged at 3,000 RPM for 5 minutes at 4° C. and supernatant removed and frozen at −80° C. until FACS analysis was carried out.
# (§7) Cytokine release was measured using a custom multiplex system (ELISA Genie) according to manufacturers instructions. Prepared samples were run on an Attune NxT flow cytometer (Thermo Fisher).
# (§8) Quantification of cytokine release inhibition: known concentration standards were run as part of the cytokine panel to allow quantification of each cytokine concentration in each sample. This was carried out using FCAP Array v3.0 software.
# (§9) Results: The dose response relationship on cytokine release following LPS induction of inflammatory response in whole blood was assessed for all compounds. IC50 values were determined for each compound for a panel of cytokines (GM-CSF, IFN-gamma, IL-1beta, IL-2, IL-4, IL-5, IL-6, IL-8, IL-9, IL-10, IL-12p40, IL-13, IL-17A, IL-17F, IL-18, IL-21, IL-22, IL-33, TGF-beta, TNF-alpha, TNF-beta).
# Human neutrophils = experiment: Neutrophil adhesion under static conditions; assay type: cell-based; conditions: fMLP-stimulated adhesion to fibrinogen; method: 40 μM and 80 μM, concentration of the value not stated
# Summary of the method: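 Donor buffy-coat neutrophils (3×10^6/ml, PBS with Ca/Mg, 10% FCS, pH 7.2) preincubated 30 min at 37° C with 40 μM or 80 μM compound, then stimulated 1 min at 37° C with 1 nM fMLP on fibrinogen-coated glass. Adherent cells fixed and counted by computer; mean ± SD, unpaired t-test.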
# IL-10 = experiment: Cytokine release after LPS induction on human whole blood: IL-10; assay type: cell-based
# Method: as §1, §2, §3, §4, §5, §6, §7, §8, §9
# VEGFR-2 = biological target: T1, VEGFR-2 (Homo sapiens, UniProt P35968); experiment: VEGF-165 induced phosphorylation of VEGF-Receptor on HUVEC; assay type: cell-based; conditions: HUVEC preincubated 60 min, VEGF165 25 ng/mL 2 min; read-out: VEGFR-Phosphorylation inhibition IC50
# T1 construct: endogenous in cells; host or cells: primary HUVEC
# T1 sequence (P35968 20-1356): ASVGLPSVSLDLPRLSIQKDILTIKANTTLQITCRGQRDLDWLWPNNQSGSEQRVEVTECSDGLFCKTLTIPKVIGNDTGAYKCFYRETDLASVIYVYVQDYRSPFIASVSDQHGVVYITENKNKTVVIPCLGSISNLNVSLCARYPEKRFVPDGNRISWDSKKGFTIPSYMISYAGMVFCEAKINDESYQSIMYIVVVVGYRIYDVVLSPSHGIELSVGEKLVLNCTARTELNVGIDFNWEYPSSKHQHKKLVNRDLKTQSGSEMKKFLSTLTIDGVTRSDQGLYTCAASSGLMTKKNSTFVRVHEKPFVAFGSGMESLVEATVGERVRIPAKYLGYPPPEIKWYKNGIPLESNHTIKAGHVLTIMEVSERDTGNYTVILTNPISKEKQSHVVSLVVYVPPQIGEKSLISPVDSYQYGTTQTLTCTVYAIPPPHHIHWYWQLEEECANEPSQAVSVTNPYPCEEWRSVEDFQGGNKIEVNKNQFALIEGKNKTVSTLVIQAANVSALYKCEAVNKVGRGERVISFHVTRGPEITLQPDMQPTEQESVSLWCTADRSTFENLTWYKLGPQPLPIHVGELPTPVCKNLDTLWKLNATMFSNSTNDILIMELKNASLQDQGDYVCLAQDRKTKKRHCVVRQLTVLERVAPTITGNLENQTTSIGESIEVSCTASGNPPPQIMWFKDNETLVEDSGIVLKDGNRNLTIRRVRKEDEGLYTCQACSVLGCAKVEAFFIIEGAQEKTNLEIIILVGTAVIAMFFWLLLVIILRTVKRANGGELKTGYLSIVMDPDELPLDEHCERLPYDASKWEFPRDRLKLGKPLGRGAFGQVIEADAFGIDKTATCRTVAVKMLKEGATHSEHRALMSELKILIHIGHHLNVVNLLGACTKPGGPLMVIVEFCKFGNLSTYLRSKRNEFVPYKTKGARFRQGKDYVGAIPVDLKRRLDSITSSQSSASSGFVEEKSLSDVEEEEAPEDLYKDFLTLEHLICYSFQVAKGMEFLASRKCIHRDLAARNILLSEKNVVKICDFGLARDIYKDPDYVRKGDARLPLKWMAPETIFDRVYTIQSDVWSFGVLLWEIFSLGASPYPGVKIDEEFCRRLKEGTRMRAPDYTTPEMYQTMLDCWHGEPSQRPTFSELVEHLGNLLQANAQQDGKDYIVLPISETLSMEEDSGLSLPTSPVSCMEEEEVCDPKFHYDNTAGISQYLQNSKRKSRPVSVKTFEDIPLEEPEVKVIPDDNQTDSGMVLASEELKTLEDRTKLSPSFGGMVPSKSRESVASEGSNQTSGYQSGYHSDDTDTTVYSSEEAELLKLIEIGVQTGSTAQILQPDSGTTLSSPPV
# [1] = system: STZ-induced diabetes model; experiment: STZ-induced diabetic nephropathy, kidney disease and retinopathy model (28 days treatment); conditions: for Mean day 0 blood glucose Concentration (mmol/L) (SD) / Mean day 28 blood glucose Concentration (mmol/L) (SD) / Blood BUN / Disease Score (kidney, H&E) / Eye area (retinal flatmount area covered by vasculature) / Trichrome staining (Kidney fibrosis) / Blood CRP / Blood IL-6 / Blood TGF-beta / Blood TNF-alpha / Urine albumine creatinine ratio (ALB:CRE): 15 mg/kg IV, Captopril 50 mg/kg PO; for Mean day 28 blood glucose Concentration (mmol/L) (SD) / Blood urea nitrogen levels: day 28; for Blood urea nitrogen levels / Kidney collagen levels (Masson's Trichrome) / Blood glucose levels on day 28: vs induced vehicle controls; for Blood BUN / Disease Score (kidney, H&E) / Eye area (retinal flatmount area covered by vasculature) / Trichrome staining (Kidney fibrosis) / Blood CRP / Blood IL-6 / Blood TGF-beta / Blood TNF-alpha / Urine albumine creatinine ratio (ALB:CRE): day 28 of treatment (week 9); for Blood CRP / Blood IL-6 / Blood TGF-beta / Blood TNF-alpha: serum; for Urine albumine creatinine ratio (ALB:CRE): urine pooled per group; for Urine ALB:CREA: treatment day 28; for Retina vasculature coverage: retinal flat mounts, FITC-dextran; for Blood glucose levels on day 28: IV
# Method: A total of 70 female CD-1 mice aged 5-7 weeks weighing approximately 25-30 g were used for the study. These were purchased from Charles River, UK and had 7 days acclimatization period. Animals were housed in IVC cages (up to 5 per cage) with individual mice identified by tail mark. All animals were allowed free access to a standard certified commercial diet and sanitised water during the study. The holding room was maintained under standard conditions: 18-24° C., 55-70% humidity and a 12 h light/dark cycle.
# Mice were starved for 6 hours prior to injection. One week after completion of induction glucose levels were monitored and mice with levels less than 15 mml/L (280 mg/gL) were removed from the study as they had not developed the ideal severity of diabetes. Glucose levels were be monitored weekly and 5 weeks after STZ induction biochemical assessment of renal injury was carried out by measuring urine albumin and creatinine levels and confirming they were within the desired range. After successful completion of this stage animals were assigned to treatment groups.
# Treatment continued for 4 weeks (28 days) with weekly measurement of blood glucose and urine albumin/creatinine. The study schedule is detailed below looking at weekly (week 5 to 9) blood glucose levels, urine albumin creatinie ratios, and terminal (week 9) blood chemistry and cytokines, kidney histology and eye-retinal leakage.
# Urine Albumin: Creatinine (ALB: CRE): Urine was collected weekly and pooled for each treatment group.
# ELISAs: At the end of the treatment period blood was collected and processed to serum. Serum levels of CRP, TGF-β, IL-6 and TNF-α were quantified using commercially available ELISA kits, results are shown in Table 56.
# TNF-beta = experiment: Cytokine release after LPS induction on human whole blood: TNFβ; assay type: cell-based
# Method: as §1, §2, §3, §4, §5, §6, §7, §8, §9
# [2] = Homo sapiens, LPS 10 ng/ml, 18 h, read-out: Whole Blood: IL-17F IC50
# [3] = human whole blood, inhibition of LPS induced inflammation, read-out: IC50 IL-17F
# [4] = Homo sapiens, LPS 10 ng/ml, 18 h, read-out: Whole Blood: IL-10 IC50
# [5] = human whole blood, inhibition of LPS induced inflammation, read-out: IC50 IL-10
# [6] = Homo sapiens, LPS 10 ng/ml, 18 h, read-out: Whole Blood: TNF β IC50
# [7] = human whole blood, inhibition of LPS induced inflammation, read-out: IC50 β
IC50 (IL-17F; [2]) [µM],IC50 (IL-17F; [3]) [µM],IC50 (IL-10; [4]) [µM],IC50 (IL-10; [5]) [µM],IC50 (VEGFR-2) [µM],IC50 (TNF-beta; [6]) [µM],IC50 (TNF-beta; [7]) [µM],Compound,Neutrophil adhesion inhibition (Human neutrophils) [%],Mean day 0 blood glucose Concentration (mmol/L) (SD) [1],Mean day 28 blood glucose Concentration (mmol/L) (SD) [1],Blood urea nitrogen levels [1],Blood BUN [1],"Disease Score (kidney, H&E) [1]",Eye area (retinal flatmount area covered by vasculature) [1],Trichrome staining (Kidney fibrosis) [1],Blood CRP [1],Blood IL-6 [1],Blood TGF-beta [1],Blood TNF-alpha [1],Urine albumine creatinine ratio (ALB:CRE) [1],other results
> 100,100,> 100,100,1.6,49.3,49.3,"O=C(O)c1cc(NC(=O)c2cc(O)c(C(=O)O)cc2O)cc(NC(=O)c2cc(O)c(C(=O)O)cc2O)c1 [Ib-010a, 3,5-bis(2,5-dihydroxy-4-carboxybenzoylamino)benzoic acid]",1.5,25.1 (6.1) mmol/L,31.1 (3.4) mmol/L,significantly lower than induced vehicle controls,20.5 ± 3.4,6 ± 1,11.8 ± 1,1.97 ± 0.8,5915 ± 1352,102.72 ± 25.4,13.17 ± 3.11,395.6 ± 46.7,24.28,Urine ALB:CREA [1]: reduced
> 100,100,1.31,1.31,4.8,0.33,0.33,"O=C(O)c1cc(O)cc(CS(=O)(=O)Cc2cc(O)cc(C(=O)O)c2O)c1O [IVc-059a, 3-((2,5-Dihydroxy-3-carboxyphenyl)methylsulfonylmethyl)-2,5-dihydroxybenzoic acid]",10,24.3 (6.4) mmol/L,23.7 (6.6) mmol/L,significantly lower than induced vehicle controls,22.5 ± 2.8,7 ± 1,8.7 ± 1.2,1.48 ± 0.73,5691 ± 1395,120.88 ± 23.05,13.47 ± 3.33,350.2 ± 41.4,18.85,Retina vasculature coverage ([1]; 28 days): significantly decreased; Kidney collagen levels (Masson's Trichrome) ([1]; 28 days): significantly decreased; Blood glucose levels on day 28 [1]: significant reduction; Urine ALB:CREA [1]: reduced
0.32,0.32,17.9,17.9,4.3,0.81,0.81,"O=C(O)c1cc(O)c(CN(Cc2cc(O)c(C(=O)O)cc2O)Cc2cc(O)c(C(=O)O)cc2O)cc1O [IIIc-061a, Tris(4-carboxy-2,5-dihydroxyphenylmethyl)amine]",58.69,,,significantly lower than induced vehicle controls,22.5 ± 4.1,8 ± 1,9.1 ± 1.1,1.54 ± 0.55,5963 ± 849,117.59 ± 29.21,17.35 ± 2.09,324.6 ± 43.6,,"Serum TNF-α ([1]; 28 days, p<0.05): significantly lower than vehicle induced controls; Retina vasculature coverage ([1]; 28 days): significantly decreased; Kidney collagen levels (Masson's Trichrome) ([1]; 28 days): significantly decreased; Blood glucose levels on day 28 [1]: reduction in blood glucose levels, however this did not reach statistical significance; Urine ALB:CREA [1]: reduced"
0.16,0.16,7.78,7.78,0.71,0.23,0.23,O=C(O)Cc1cc(O)c(C(=O)Nc2ccccc2-c2nnn[nH]2)cc1O [IIIa-001aTz],39.74,,,,,,,,,,,,,
34.2,34.2,> 100,100,0.09,38.2,38.2,"CCOC(=O)c1cc(NC(=O)c2cc(O)c(C(=O)OCC)cc2O)cc(NC(=O)c2cc(O)c(C(=O)OCC)cc2O)c1 [Ib-010a-E3, ethyl 3,5-bis(2,5-dihydroxy-4-ethoxycarbonylbenzoylamino)benzoate]",79.5,,,,,,,,,,,,,
0.13,0.13,11.3,11.3,1.7,6.94,6.94,"O=C(O)c1cc(O)ccc1NC(=O)c1cc(O)cc(C(=O)Nc2ccc(O)cc2C(=O)O)c1O [IIc-009a, 2-(3-(2-carboxy-4-hydroxyphenylaminocarbonyl)-2,5-dihydroxybenzamido)-5-hydroxyl benzoic acid]",53.15,,,,,,,,,,,,,

Compound,IC50 (IL-17F; [2]) [µM],IC50 (IL-17F; [3]) [µM],IC50 (IL-10; [4]) [µM],IC50 (IL-10; [5]) [µM],IC50 (VEGFR-2) [µM],IC50 (TNF-beta; [6]) [µM],IC50 (TNF-beta; [7]) [µM],Neutrophil adhesion inhibition (Human neutrophils) [%],Mean day 0 blood glucose Concentration (mmol/L) (SD) [1],Mean day 28 blood glucose Concentration (mmol/L) (SD) [1],Blood urea nitrogen levels [1],Blood BUN [1],"Disease Score (kidney, H&E) [1]",Eye area (retinal flatmount area covered by vasculature) [1],Trichrome staining (Kidney fibrosis) [1],Blood CRP [1],Blood IL-6 [1],Blood TGF-beta [1],Blood TNF-alpha [1],Urine albumine creatinine ratio (ALB:CRE) [1],other results
"O=C(O)c1cc(NC(=O)c2cc(O)c(C(=O)Nc3ccc(O)c(C(=O)O)c3)cc2O)ccc1O [Ic-007a, 5-(4-(3-carboxy-4-hydroxyphenylaminocarbonyl)-2,5-dihydroxybenzamido)-2-hydroxy benzoic acid]",22.9,22.9,12.5,12.5,0.09,6.52,6.52,57.5,,,significantly lower than induced vehicle controls,21.7 ± 3.0,7 ± 1,9.1 ± 1.1,2.23 ± 0.61,5707 ± 892,109.27 ± 19.03,16.66 ± 2.11,326.8 ± 63^,,Retina vasculature coverage ([1]; 28 days): significantly decreased
"O=C(O)c1cc(NC(=O)c2cc(O)c(C(=O)Nc3ccccc3-c3nnn[nH]3)cc2O)ccc1O [Ic-001a-Tz/004a, 5-(4-(2-(1H-tetrazol-5-yl)phenylaminocarbonyl)-2,5-dihydroxybenzamido)-2-hydroxy benzoic acid]",,,,,2.6,,,96.99,25.8 (5.7) mmol/L,29.6 (7.8) mmol/L,,24.1 ± 4.1,9 ± 1,10.7 ± 2.1,2.48 ± 0.46,6077 ± 863,104.66 ± 22.89,15.48 ± 1.73,322.8 ± 40.1,35.10,"IC50 (IL-17F; Homo sapiens, 18 h, read-out: Whole Blood: IL-17F IC50): 2.4 µM; IC50 (IL-17F; Homo sapiens, read-out: IC50 IL-17F): 2.4 µM; IC50 (IL-10; Homo sapiens, 18 h, read-out: Whole Blood: IL-10 IC50): 19.5 µM; IC50 (IL-10; Homo sapiens, read-out: IC50 IL-10): 19.5 µM; IC50 (TNF-beta; Homo sapiens): 3.02 µM; IC50 (TNF-beta; Homo sapiens, 18 h, read-out: Whole Blood: TNF β IC50): 3.02 µM"
